Measurements reported in US20030215899A1, “Reversible oxidation of protein tyrosine phosphatases” (CEPTYR, Inc., priority 2002, published 2003).
“Also recorded” adds a separate entry of the source.

Legend:
70 kDa PTP (SHP-2) = target: T1, 70 kDa PTP (SHP-2) (Rattus norvegicus, UniProt P41499); test: modified in-gel PTP assay, growth factor stimulated Rat-1 cells; format: cell-based
T1 construct: endogenous in cells; host or cells: Rat-1 fibroblasts
T1 sequence (P41499 1-593): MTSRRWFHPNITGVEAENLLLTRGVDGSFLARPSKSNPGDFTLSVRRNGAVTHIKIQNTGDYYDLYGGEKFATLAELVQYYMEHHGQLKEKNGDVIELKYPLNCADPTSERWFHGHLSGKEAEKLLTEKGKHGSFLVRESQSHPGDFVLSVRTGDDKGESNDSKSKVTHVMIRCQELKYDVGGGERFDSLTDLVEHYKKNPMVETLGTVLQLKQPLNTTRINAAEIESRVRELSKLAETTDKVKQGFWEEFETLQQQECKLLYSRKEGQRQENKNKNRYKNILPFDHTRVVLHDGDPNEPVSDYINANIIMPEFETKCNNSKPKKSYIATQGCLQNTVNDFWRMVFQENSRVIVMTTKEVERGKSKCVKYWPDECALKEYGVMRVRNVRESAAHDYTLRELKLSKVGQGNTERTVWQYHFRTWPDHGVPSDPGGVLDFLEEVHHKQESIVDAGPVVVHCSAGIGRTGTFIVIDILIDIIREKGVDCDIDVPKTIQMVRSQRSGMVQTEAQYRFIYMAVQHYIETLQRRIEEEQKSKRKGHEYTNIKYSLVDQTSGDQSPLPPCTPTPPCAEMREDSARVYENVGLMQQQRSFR
Description: (§1) To determine whether ROS stimulated intracellular tyrosine phosphorylation through the oxidation and inhibition of cellular PTPs, a modified in-gel PTP activity assay was devised, as follows: As substrate, poly (4:1) Glu-Tyr (Sigma) was labeled with [γ-^32P]-ATP using the GST-FER fusion PTK, as described previously (Shen et al., 1998 J. Biol. Chem. 273:6474-81). The labeled substrates were used within three weeks to limit the variation of its specific activity from experiment to experiment. The lysis buffer (25 mM CH3COONa, 1% NP-40, 150 mM NaCl, 10% glycerol, pH 5.5) was degassed at 4° C. for overnight, before catalase and superoxide dismutase (both 100 μg/ml), protease inhibitors and 10 mM iodoacetic acid (IAA) were added. Following stimulation, cells were lysed under anaerobic conditions in an argon chamber. Lysates (25 μg) were processed as described herein and an “in-gel” phosphatase assay (Burridge and Nelson, 1995) was conducted using SDS-PAGE gels containing a radioactively-labeled substrate (1.5×10^6 cpm/20 ml gel solution, approximately 2 μM p-Tyr).
(§2) Cells were triggered with the appropriate stimulus and harvested under anaerobic conditions in lysis buffer containing IAA. Those PTPs that had not encountered ROS in the cell became irreversibly inactivated by alkylation of their active site Cys with IAA. However, in contrast, any PTPs in which the active site Cys had been oxidized in response to the stimulus were resistant to alkylation. For the “in-gel” phosphatase assay, a 10% SDS-PAGE gel was cast containing a radioactively-labeled substrate. An aliquot of cell lysate was subjected to SDS-PAGE and proteins in the gel were sequentially denatured, then renatured in the presence of reducing reagents. […] The reaction was then terminated by fixing, staining and destaining the gel. Finally the gel was dried and exposed to film. The presence of a PTP was visualized by substrate dephosphorylation, as the appearance of a clear, white area on the black background of labeled substrate.
As described above, treatment of Rat-1 cells with H2O2 led to inactivation of multiple PTPs (FIGS. 2-3). […] Lysates of PDGF-stimulated Rat-1 cells were then analyzed using the modified in-gel PTP activity assay described above. […] Serum-starved Rat-1 cells were exposed to 50 ng/ml PDGF-BB for the times indicated (FIG. 4A). Lysates were prepared in the presence of 10 mM IAA and subjected to the in-gel PTP assay. […] The result shown is representative of four independent experiments. Oxidation of this 70 kDa PTP was reversible, reaching a maximum at 5 minutes, followed by marked reduction, almost to basal levels, within 20 minutes of PDGF treatment (FIG. 4A).
Rat-1 cells, either untreated (−) or stimulated with 50 ng/ml PDGF (+), were harvested in lysis buffer containing 10 mM IAA.

MAPK = test: anti-phospho-MAPK / anti-MAPK immunoblot; format: cell-based, Rat
Protocol: (§3) For immunoprecipitation, cells were rinsed with ice-cold PBS, then lysed in ice-cold 20 mM Hepes (pH 7.5), 1% NP-40, 150 mM NaCl, 10% glycerol, 200 μM […] and protease inhibitors (25 μg/ml of aprotinin and leupeptin). […] The anti-pTyr antibody G104 was described previously (Garton et al., 1997 Oncogene 15, 877-885). Anti-PDGFRββ antibody (Ab-X) was a gift from Dr. Daniel DiMaio at Yale University (Irusta and DiMaio, 1998 EMBO J. 17, 6912-6923). Anti-human G-CSF receptor (G-CSFR) antibody was provided by Dr. Toshio Hirano at Osaka University, Japan (Fukada et al., 1996 Immunity 5, 449-460). Lysate (400 μg) was incubated with 5 μg of antibody conjugated to protein A/G-Sepharose (Amersham Pharmacia, Arlington Heights, Ill.) for 2 hours at 4° C. For immunoblotting, aliquots of total lysates (30 μg per sample) or immunoprecipitates were subjected to SDS-PAGE and transferred to nitrocellulose filters, which were incubated with appropriate primary and secondary antibodies and the specific signals were visualized by the ECL detection system (Amersham Pharmacia).

PDGFR/SHP-2 complex = test: recruitment of SHP-2 into a complex with the PDGFR; format: cell-based; conditions: ligand stimulation in Rat-1 cells, preliminary studies
Protocol: as §3
Serum-starved Rat-1 cells were exposed to PDGF (50 ng/ml) for the indicated times (FIG. 5A). The PDGFR and associated proteins were immunoprecipitated with antibody Ab-X, and pTyr proteins visualized by immunoblotting with anti-pTyr Ab G104 (FIG. 5A, upper panel). […]

[1] = test system: tyrosine phosphorylation of cellular proteins in Rat-1 cells; test: immunoprecipitation (PT-66) and anti-pTyr (G104) immunoblot of tyrosine phosphorylated proteins; format: cell-based; conditions: PDGF-treated Rat-1 cells, preliminary experiments
Protocol: as §3

[2] = test system: intracellular ROS in Rat-1 cells; test: ROS-induced DCF fluorescence (microscopy, flow cytometry); format: cell-based; conditions: 20 μM CM-H2DCFDA, growth factor 50 ng/ml, 10 mins
Protocol: The effects of H2O2 and t-BHP on inactivation of PTPs and activation of MAPK signaling pathways were next compared in a cellular context. Intracellular ROS were measured using 2′,7′-dichlorofluorescein diacetate (H2DCFDA) and 5-(and-6)-chloromethyl-2′,7′-dichlorodihydrofluorescein diacetate (CM-H2DCFDA) (all fluorescent ROS indicators from Molecular Probes, Eugene, Oreg.) either by fluorescence microscopy, using a Zeiss Axiovert 405M inverted microscope equipped with a fluorescence attachment and digital camera, or by cell sorting, using a FACSCalibur System ([…].), according to the manufacturer's recommendations. Rat-1 cells were pre-loaded with 20 μM H2DCFDA in the dark for 20 mins, then exposed to H2O2 and t-BHP (both 200 μM) for 5 mins. Images of ROS-induced DCF fluorescence are shown at magnification 400× (FIG. 3B upper panel). Cells (1×10^5) that underwent the same treatment as above were harvested and resuspended in Hanks' solution, then immediately subjected to flow cytometric analysis to measure ROS-induced DCF fluorescence. The basal peak indicates background fluorescence, whereas the rightward shifted peak indicates ROS-induced DCF fluorescence (FIG. 3B, lower panels). […] Cells were exposed to H2O2 and t-BHP (each at 200 μM) for the indicated times, lysed in the presence of 10 mM IAA and oxidized PTPs were visualized in the in-gel PTP activity assay.
Rat-1 cells were incubated with 20 μM CM-H2DCFDA in the dark for 20 mins, then exposed to peptide growth factors (50 ng/ml) for an additional 10 mins. Images of ROS-induced DCF fluorescence are shown at 50× magnification. (FIG. 6A) The data are representative of 4 independent experiments. In FIG. 6B, Rat-1 cells were exposed to peptide growth factors for the indicated times, lysed in the presence of 10 mM IAA, and oxidized PTPs were visualized by the in-gel PTP assay. […] Aliquots of cell lysate from each treatment group were immunoblotted with anti-phospho-MAPK Ab and re-probed with anti-MAPK Ab.

PTPs in Rat-1 cells = test: modified in-gel PTP activity assay of Rat-1 cell lysates; format: cell-based
Description: as §1, §2

SHP-2 (E76A mutant) = SHP-2 (E76A mutant) (Homo sapiens, UniProt Q06124, E76A); format: biochemical
[3] = test system: PTPs in peripheral blood mononuclear lymphocytes; test: in-gel protection assay, PHA-stimulated peripheral blood mononuclear lymphocytes; format: cell-based, human; conditions: 50 mM IAA, cells without ASBA-1 pretreatment
Protocol: Peripheral blood mononuclear lymphocytes were purified from human blood. In 5 ml media (RPMI), 2×10^7 cells were incubated in 50 μM ASBA-1 (PTP specific inhibitor) for 90 minutes and stimulated with phytohemagglutinin (PHA, 0.5 μL of 5.0 mg/ml stock) for 2, 10 or 30 min. […] Desalted proteins were separated on a 2 ml Source Q anion exchange column (Amersham Pharmacia Biotech) using a 0-1M NaCl gradient in 20 mM Tris, pH 7.5; 1 mM EDTA; 0.05% Triton X-100.

PDGFR = PDGFR immunoprecipitation (Ab-X) and anti-pTyr immunoblot; format: cell-based, Rat; conditions: 30 mM NAC 40 minutes before PDGF 50 ng/ml
Protocol: as §3
A possible role of oxidation/inactivation of the 70 k PTP in regulating PDGFR-mediated signaling was next investigated by testing the effects of the antioxidant NAC. Cells were incubated for 40 minutes in the presence or absence of 30 mM NAC prior to PDGF stimulation. Excess NAC was removed prior to addition of PDGF (50 ng/ml). […]

[4] = 30 mM NAC 40 minutes before PDGF 50 ng/ml

PDGF: peptide growth factor was tested, and the “time of maximum oxidation of 70 kDa PTP” value (70 kDa PTP (SHP-2); 50 ng/ml PDGF-BB) was 5 min, the “time to reduction of 70 kDa PTP almost to basal levels” value (70 kDa PTP (SHP-2); 50 ng/ml PDGF-BB) was no more than 20 min and the “oxidation of ~70 kDa PTP” value (70 kDa PTP (SHP-2); 50 ng/ml PDGF-BB, serum-starved Rat-1 cells) was “rapid and transient oxidation; also recorded: transiently oxidized”. The “oxidation and inhibition of SHP-2” value (70 kDa PTP (SHP-2); peptide growth factors, lysis with 10 mM IAA) was “oxidation and inhibition of SHP-2 was observed; also recorded: induced”, the “phosphorylation of MAPKs” value (MAPK; PDGF-treated Rat-1 cells, preliminary experiments) was “enhanced phosphorylation of MAPKs” and the “activation of MAPK” value (MAPK; peptide growth factors, Rat-1 cells) was “activated MAPK to a similar extent”. For the same molecule, the “fraction of total SHP-2 recruited into a complex with the PDGFR” value (PDGFR/SHP-2 complex) was roughly 10%, the “tyrosine phosphorylation of cellular proteins” value [1] was “rapid increase in the tyrosine phosphorylation of cellular proteins” and the “production of intracellular ROS” value [2] was “triggered production of intracellular ROS”.

In the case of `O=C(O)CI` [IAA, iodoacetic acid], the “inactivation of PTPs in lysate by alkylation” value (PTPs in Rat-1 cells) is reported as “effectively inactivated PTPs”, the “inactivation of purified SHP-2” value (SHP-2 (E76A mutant)) is reported as “inactivated by IAA” and the “inactivation of PTPs” value [3] is reported as “inactivated by IAA”.

With `CC(=O)N[C@@H](CS)C(=O)O` [NAC, N-acetyl cysteine] the “effect on PDGF-induced oxidation of the 70 k PTP” value (70 kDa PTP (SHP-2); [4]) was “markedly attenuated; also recorded: impaired”, the “effect on H2O2-induced PTP oxidation and inactivation” value (PTPs in Rat-1 cells; 30 mM NAC preincubation 40 minutes, then 200 μM H2O2) was “blocked PTP oxidation and inactivation” and the “effect on ligand-induced tyrosine phosphorylation of the PDGFR” value (PDGFR) was “greatly diminished”. For the same molecule, the “effect on PDGF-induced activation of MAPKs” value (MAPK; [4]) was “completely eliminated”.
